This is an account of results in PMC5490826 (Viruses, 2017).

Common to all, as to assay type: binding
For experiment [1], the target named is T1, NS5B Δ21 1b Con1 (Hepatitis C virus (isolate Con1), UniProt Q9WMX2). The experiment can be described thus: differential scanning fluorimetry (SYPRO Orange). To be noted: 2 µM protein, 10 µM inhibitor, 50 mM Tris-HCl pH 7.5, up to 2% DMSO; allosteric, palm site; unreliable (text b33 differs from table; not confirmed by SPR). On the technique in general: Differential scanning fluorimetry follows unfolding on heating by fluorescence.

Another experiment deals with NS5B Δ21 1b BK (Hepatitis C virus (isolate BK), UniProt P26663). The experiment is described as follows: SPR (Biacore), kinetic two-state model, immobilized enzyme. In general terms: In SPR one partner is held on a chip, and binding of the other changes the refractive index at the surface.
In experiment [2] the target is T1, NS5B Δ21 1b Con1. Described as above.
Another experiment addresses NS5B Δ21 3a (Hepatitis C virus (isolate NZL1), UniProt Q81258). Particulars: read-out: Lomibuvir / 3a (±SD); pH 7.4, 25 °C, 10 mM MgCl2, 130 mM NaCl, 3% DMSO; allosteric, thumb II site.

Sequence of NS5B Δ21 3a (Q81258 2431-3000, stated change not applied): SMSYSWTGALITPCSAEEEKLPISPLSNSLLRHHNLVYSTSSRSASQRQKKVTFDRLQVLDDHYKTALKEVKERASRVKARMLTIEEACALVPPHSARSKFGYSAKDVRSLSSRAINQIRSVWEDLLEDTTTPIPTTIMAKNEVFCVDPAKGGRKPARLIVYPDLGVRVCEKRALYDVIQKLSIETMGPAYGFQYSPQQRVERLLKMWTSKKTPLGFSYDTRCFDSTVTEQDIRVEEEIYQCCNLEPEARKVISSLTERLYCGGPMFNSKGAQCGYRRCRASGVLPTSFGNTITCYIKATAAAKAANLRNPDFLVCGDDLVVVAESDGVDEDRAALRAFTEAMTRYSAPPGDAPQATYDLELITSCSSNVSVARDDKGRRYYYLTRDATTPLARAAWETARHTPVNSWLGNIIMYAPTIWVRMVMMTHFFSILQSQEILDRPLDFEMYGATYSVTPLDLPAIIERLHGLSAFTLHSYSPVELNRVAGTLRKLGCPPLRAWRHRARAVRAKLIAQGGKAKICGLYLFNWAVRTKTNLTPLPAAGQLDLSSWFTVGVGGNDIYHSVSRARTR
Sequence of NS5B Δ21 1b BK (P26663 2420-2989, stated change not applied): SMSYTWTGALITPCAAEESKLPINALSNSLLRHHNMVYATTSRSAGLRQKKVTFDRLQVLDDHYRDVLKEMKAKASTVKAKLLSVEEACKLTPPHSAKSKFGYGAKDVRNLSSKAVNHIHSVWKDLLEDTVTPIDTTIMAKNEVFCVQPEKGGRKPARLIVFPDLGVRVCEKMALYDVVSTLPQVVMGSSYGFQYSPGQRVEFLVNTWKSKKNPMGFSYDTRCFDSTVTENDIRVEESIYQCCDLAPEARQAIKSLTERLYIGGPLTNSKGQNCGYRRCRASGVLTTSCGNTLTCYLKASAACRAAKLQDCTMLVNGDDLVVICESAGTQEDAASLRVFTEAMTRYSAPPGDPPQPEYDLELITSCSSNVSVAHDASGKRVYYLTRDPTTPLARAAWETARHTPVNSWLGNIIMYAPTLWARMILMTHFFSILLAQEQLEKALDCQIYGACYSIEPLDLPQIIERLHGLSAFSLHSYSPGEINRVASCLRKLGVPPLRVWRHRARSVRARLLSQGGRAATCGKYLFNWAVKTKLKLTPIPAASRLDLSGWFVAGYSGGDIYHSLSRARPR

`CNC(=O)c1c(-c2ccc(F)cc2)oc2cc(N(CCO)S(C)(=O)=O)c(C3CC3)cc12` [nesbuvir]: the “1b Con1 / ΔTm” value at NS5B Δ21 1b Con1 [1] was found to be 5 °C.

`CC(C)(C)C#Cc1cc(N(C(=O)[C@H]2CC[C@H](C)CC2)[C@H]2CC[C@H](O)CC2)c(C(=O)O)s1` [lomibuvir]: the values for the Kd at NS5B Δ21 1b BK, at NS5B Δ21 1b Con1 [2] and on NS5B Δ21 3a were 20 ± 0.4 nM, 19 ± 7 nM and greater than 2000 nM, respectively.
